Test results as given in patent publication US12404295B2, “(Hetero)aryl-methyl-thio-beta-D-galactopyranoside derivatives” (Idorsia Pharmaceuticals Ltd, priority 2019, dated 2025).
Where two headings read alike, the source gives them in different places.

Columns and labels:
[1] = molecular target: human Gal-1 (hGal-1) (Homo sapiens (Human), UniProt P09382); experiment: competitive binding assay: biotinylated hGal-1 binding to microplate-adsorbed asialofetuin (ASF); details: Table 15; read-out: IC50 (Galectin-1 inhibition)
Method in brief: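 Spectrophotometric competition readout: after compound and biotinylated hGal-1 (300-1000 ng/mL) sit 3 h at 4° C on adsorbed asialofetuin, streptavidin-peroxidase (1 h, 4° C) and ABTS reveal residual binding. Reported IC50 values are means of repeat runs.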

[2] = molecular target: human Gal-3 (hGal-3) (Homo sapiens (Human), UniProt P17931); experiment: competitive binding assay: biotinylated hGal-3 binding to microplate-adsorbed asialofetuin (ASF); details: read-out: IC50 (Gal-3 inhibition)
Method in brief: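 Serially diluted compounds compete with biotinylated hGal-3 binding to adsorbed asialofetuin (3 hours, 4° C). After washing, streptavidin-peroxidase at 80 ng/mL for 1 hour at 4° C, with ABTS colour read-out. IC50 values are averaged over repeated runs.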

human Gal-1 (hGal-1), sequence (P09382 whole entry): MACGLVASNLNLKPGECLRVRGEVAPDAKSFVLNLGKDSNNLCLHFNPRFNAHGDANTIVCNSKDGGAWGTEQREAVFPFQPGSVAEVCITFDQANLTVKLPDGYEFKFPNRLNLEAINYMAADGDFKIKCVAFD
human Gal-3 (hGal-3), sequence (P17931 whole entry): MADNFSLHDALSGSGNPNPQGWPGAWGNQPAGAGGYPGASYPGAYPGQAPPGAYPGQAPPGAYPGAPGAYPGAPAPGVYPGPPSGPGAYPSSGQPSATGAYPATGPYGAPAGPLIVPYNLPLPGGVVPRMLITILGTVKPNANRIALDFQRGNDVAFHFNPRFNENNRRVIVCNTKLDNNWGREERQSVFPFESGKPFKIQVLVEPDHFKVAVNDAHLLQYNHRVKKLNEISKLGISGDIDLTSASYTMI

IC50 [1] [nM]	IC50 ([2]; Table 10, 2-OMe-Gal inhibitors) [nM]	IC50 ([2]; Table 9, 2-OMe-Gal inhibitors) [nM]	IC50 ([2]; Table 11) [nM]	SMILES
> 100000	15600	–	–	CO[C@@H]1[C@@H](n2cc(-c3cc(F)c(F)c(F)c3)nn2)[C@@H](O)[C@@H](CO)O[C@H]1S[C@@H](c1c(C)cnn1C)C1(O)CCC(F)(F)CC1 [Example 2.44.136S.I., (2R,3R,4S,5R,6S)-6-(((S)-(4,4-Difluoro-1-hydroxycyclohexyl)(1,4-dimethyl-1H-pyrazol-5-yl)methyl)thio)-2-(hydroxymethyl)-5-methoxy-4-(4-(3,4,5-trifluorophenyl)-1H-1,2,3-triazol-1-yl)tetrahydro-2H-pyran-3-ol]
4360	–	140	–	CO[C@@H]1[C@@H](n2cc(-c3cc(F)c(F)c(F)c3)nn2)[C@@H](O)[C@@H](CO)O[C@H]1SC(c1ncccc1Cl)C1(O)CCC(F)(F)CC1 (stereo partly drawn) [Example 2.44.137.I., (2R,3R,4S,5R,6S)-6-(((3-Chloropyridin-2-yl)(4,4-difluoro-1-hydroxycyclohexyl)methyl)thio)-2-(hydroxymethyl)-5-methoxy-4-(4-(3,4,5-trifluorophenyl)-1H-1,2,3-triazol-1-yl)tetrahydro-2H-pyran-3-ol]
720	–	70	–	CO[C@@H]1[C@@H](n2cc(-c3cc(F)c(F)c(F)c3)nn2)[C@@H](O)[C@@H](CO)O[C@H]1S[C@H](c1ncccc1Cl)C1(O)CCC(F)(F)CC1 [Example 2.44.137R.I., (2R,3R,4S,5R,6S)-6-(((R)-(3-Chloropyridin-2-yl)(4,4-difluoro-1-hydroxycyclohexyl)methyl)thio)-2-(hydroxymethyl)-5-methoxy-4-(4-(3,4,5-trifluorophenyl)-1H-1,2,3-triazol-1-yl)tetrahydro-2H-pyran-3-ol]
840	300	–	–	CCn1nnc(C)c1C(S[C@@H]1O[C@H](CO)[C@H](O)[C@H](n2cc(-c3cc(F)c(F)c(F)c3)nn2)[C@H]1OC)C1(O)CCC(F)(F)CC1 (stereo partly drawn) [Example 2.44.138.I., (2R,3R,4S,5R,6S)-6-(((4,4-Difluoro-1-hydroxycyclohexyl)(1-ethyl-4-methyl-1H-1,2,3-triazol-5-yl)methyl)thio)-2-(hydroxymethyl)-5-methoxy-4-(4-(3,4,5-trifluorophenyl)-1H-1,2,3-triazol-1-yl)tetrahydro-2H-pyran-3-ol]
400	150	–	–	CCn1nnc(C)c1[C@@H](S[C@@H]1O[C@H](CO)[C@H](O)[C@H](n2cc(-c3cc(F)c(F)c(F)c3)nn2)[C@H]1OC)C1(O)CCC(F)(F)CC1 [Example 2.44.138R.I., (2R,3R,4S,5R,6S)-6-(((R)-(4,4-Difluoro-1-hydroxycyclohexyl)(1-ethyl-4-methyl-1H-1,2,3-triazol-5-yl)methyl)thio)-2-(hydroxymethyl)-5-methoxy-4-(4-(3,4,5-trifluorophenyl)-1H-1,2,3-triazol-1-yl)tetrahydro-2H-pyran-3-ol]
> 100000	13200	–	–	CCn1nnc(C)c1[C@H](S[C@@H]1O[C@H](CO)[C@H](O)[C@H](n2cc(-c3cc(F)c(F)c(F)c3)nn2)[C@H]1OC)C1(O)CCC(F)(F)CC1 [Example 2.44.138S.I., (2R,3R,4S,5R,6S)-6-(((S)-(4,4-Difluoro-1-hydroxycyclohexyl)(1-ethyl-4-methyl-1H-1,2,3-triazol-5-yl)methyl)thio)-2-(hydroxymethyl)-5-methoxy-4-(4-(3,4,5-trifluorophenyl)-1H-1,2,3-triazol-1-yl)tetrahydro-2H-pyran-3-ol]
3900	620	–	–	CCn1ncc(Cl)c1C(S[C@@H]1O[C@H](CO)[C@H](O)[C@H](n2cc(-c3cc(F)c(F)c(F)c3)nn2)[C@H]1OC)C1(O)CCC(F)(F)CC1 (stereo partly drawn) [Example 2.44.139.I., (2R,3R,4S,5R,6S)-6-(((4-Chloro-1-ethyl-1H-pyrazol-5-yl)(4,4-difluoro-1-hydroxycyclohexyl)methyl)thio)-2-(hydroxymethyl)-5-methoxy-4-(4-(3,4,5-trifluorophenyl)-1H-1,2,3-triazol-1-yl)tetrahydro-2H-pyran-3-ol]
540	320	–	–	CCn1ncc(Cl)c1[C@@H](S[C@@H]1O[C@H](CO)[C@H](O)[C@H](n2cc(-c3cc(F)c(F)c(F)c3)nn2)[C@H]1OC)C1(O)CCC(F)(F)CC1 [Example 2.44.139R.I., (2R,3R,4S,5R,6S)-6-(((R)-(4-Chloro-1-ethyl-1H-pyrazol-5-yl)(4,4-difluoro-1-hydroxycyclohexyl)methyl)thio)-2-(hydroxymethyl)-5-methoxy-4-(4-(3,4,5-trifluorophenyl)-1H-1,2,3-triazol-1-yl)tetrahydro-2H-pyran-3-ol]
> 100000	37900	–	–	CCn1ncc(Cl)c1[C@H](S[C@@H]1O[C@H](CO)[C@H](O)[C@H](n2cc(-c3cc(F)c(F)c(F)c3)nn2)[C@H]1OC)C1(O)CCC(F)(F)CC1 [Example 2.44.139S.I., (2R,3R,4S,5R,6S)-6-(((S)-(4-Chloro-1-ethyl-1H-pyrazol-5-yl)(4,4-difluoro-1-hydroxycyclohexyl)methyl)thio)-2-(hydroxymethyl)-5-methoxy-4-(4-(3,4,5-trifluorophenyl)-1H-1,2,3-triazol-1-yl)tetrahydro-2H-pyran-3-ol]
700	120	–	–	CCc1onc([C@@H](S[C@@H]2O[C@H](CO)[C@H](O)[C@H](n3cc(-c4cc(F)c(F)c(F)c4)nn3)[C@H]2OC)C2(O)CCC(F)(F)CC2)c1C [Example 2.44.140R.I., (2R,3R,4S,5R,6S)-6-(((R)-(4,4-Difluoro-1-hydroxycyclohexyl)(5-ethyl-4-methylisoxazol-3-yl)methyl)thio)-2-(hydroxymethyl)-5-methoxy-4-(4-(3,4,5-trifluorophenyl)-1H-1,2,3-triazol-1-yl)tetrahydro-2H-pyran-3-ol]
860	–	–	150	CO[C@@H]1[C@@H](n2cc(-c3cc(F)c(F)c(F)c3)nn2)[C@@H](O)[C@@H](CO)O[C@H]1SC(c1nccc(Cl)c1C)C1(O)CCC(F)(F)CC1 (stereo partly drawn) [Example 2.44.141.I., (2R,3R,4S,5R,6S)-6-(((4-Chloro-3-methylpyridin-2-yl)(4,4-difluoro-1-hydroxycyclohexyl)methyl)thio)-2-(hydroxymethyl)-5-methoxy-4-(4-(3,4,5-trifluorophenyl)-1H-1,2,3-triazol-1-yl)tetrahydro-2H-pyran-3-ol]
350	–	–	70	CO[C@@H]1[C@@H](n2cc(-c3cc(F)c(F)c(F)c3)nn2)[C@@H](O)[C@@H](CO)O[C@H]1S[C@H](c1nccc(Cl)c1C)C1(O)CCC(F)(F)CC1 [Example 2.44.141R.I., (2R,3R,4S,5R,6S)-6-(((R)-(4-Chloro-3-methylpyridin-2-yl)(4,4-difluoro-1-hydroxycyclohexyl)methyl)thio)-2-(hydroxymethyl)-5-methoxy-4-(4-(3,4,5-trifluorophenyl)-1H-1,2,3-triazol-1-yl)tetrahydro-2H-pyran-3-ol]
10500	–	–	3500	CO[C@@H]1[C@@H](n2cc(-c3cc(F)c(F)c(F)c3)nn2)[C@@H](O)[C@@H](CO)O[C@H]1S[C@@H](c1nccc(Cl)c1C)C1(O)CCC(F)(F)CC1 [Example 2.44.141S.I., (2R,3R,4S,5R,6S)-6-(((S)-(4-Chloro-3-methylpyridin-2-yl)(4,4-difluoro-1-hydroxycyclohexyl)methyl)thio)-2-(hydroxymethyl)-5-methoxy-4-(4-(3,4,5-trifluorophenyl)-1H-1,2,3-triazol-1-yl)tetrahydro-2H-pyran-3-ol]
190	–	–	50	CCc1cccnc1C(S[C@@H]1O[C@H](CO)[C@H](O)[C@H](n2cc(-c3cc(F)c(F)c(F)c3)nn2)[C@H]1OC)C1(O)CCC(F)(F)CC1 (stereo partly drawn) [Example 2.44.142.I., (2R,3R,4S,5R,6S)-6-(((4,4-Difluoro-1-hydroxycyclohexyl)(3-ethylpyridin-2-yl)methyl)thio)-2-(hydroxymethyl)-5-methoxy-4-(4-(3,4,5-trifluorophenyl)-1H-1,2,3-triazol-1-yl)tetrahydro-2H-pyran-3-ol]
100	–	–	30	CCc1cccnc1[C@@H](S[C@@H]1O[C@H](CO)[C@H](O)[C@H](n2cc(-c3cc(F)c(F)c(F)c3)nn2)[C@H]1OC)C1(O)CCC(F)(F)CC1 [Example 2.44.142R.I., (2R,3R,4S,5R,6S)-6-(((R)-(4,4-Difluoro-1-hydroxycyclohexyl)(3-ethylpyridin-2-yl)methyl)thio)-2-(hydroxymethyl)-5-methoxy-4-(4-(3,4,5-trifluorophenyl)-1H-1,2,3-triazol-1-yl)tetrahydro-2H-pyran-3-ol [1,3-di-deoxy-1-((4,4-difluoro-1-hydroxy-cyclohexan-1-yl)-(3-(-ethyl)pyridin-2-yl)methyl-(R)-thio)-2-O-methyl-3-[4-(3,4,5-trifluorophenyl)-1H-1,2,3-triazol-1-yl]-b-D-galactopyranoside]]
8310	–	–	8110	CCc1cccnc1[C@H](S[C@@H]1O[C@H](CO)[C@H](O)[C@H](n2cc(-c3cc(F)c(F)c(F)c3)nn2)[C@H]1OC)C1(O)CCC(F)(F)CC1 [Example 2.44.142S.I., (2R,3R,4S,5R,6S)-6-(((S)-(4,4-Difluoro-1-hydroxycyclohexyl)(3-ethylpyridin-2-yl)methyl)thio)-2-(hydroxymethyl)-5-methoxy-4-(4-(3,4,5-trifluorophenyl)-1H-1,2,3-triazol-1-yl)tetrahydro-2H-pyran-3-ol]
850	–	–	140	CO[C@@H]1[C@@H](n2cc(-c3cc(F)c(F)c(F)c3)nn2)[C@@H](O)[C@@H](CO)O[C@H]1SC(c1nccc(Cl)c1Cl)C1(O)CCC(F)(F)CC1 (stereo partly drawn) [Example 2.44.143.I., (2R,3R,4S,5R,6S)-6-(((3,4-Dichloropyridin-2-yl)(4,4-difluoro-1-hydroxycyclohexyl)methyl)thio)-2-(hydroxymethyl)-5-methoxy-4-(4-(3,4,5-trifluorophenyl)-1H-1,2,3-triazol-1-yl)tetrahydro-2H-pyran-3-ol]
